The results in this text go back to a melting point compilation (Tetko et al.; mined from patent text by program, amines drawn as free bases though some values may be those of a salt).

With `CCOC(=O)C(C#N)c1ncccc1[N+](=O)[O-]` (stereo not given), the melting point lay within 133 to 134 °C. As to `CN1C(=O)CC[C@]2(C)c3ccc(-c4ccc(O)c(F)c4)cc3CC[C@@H]12`, the melting point is > 240 °C.

The molecule `COCCCCCCCCCCC(=O)O` showed a melting point of 31 to 32 °C.

As to `CCCN(c1ccncc1)n1ccc2cc(OC(=O)NCc3ccccc3)ccc21`, the melting point lay in the range of 156 to 158 °C.

For the molecule `CCOC(=O)c1nc2cnn(CC)c2nc1C`, the melting point lay in the range of 64 to 65 °C.

In turn, `CCCC(OC)(C(=O)n1ccnc1)c1ccc(Cl)cc1Cl` (stereo not given) yielded a melting point of 99 to 101 °C. `CCCc1nn(-c2ccc(C(F)(F)F)cn2)cc1CCCCOc1c(CC(=O)O)cccc1OC` displayed a melting point of 111 to 112 °C. With `CNC(=O)C(NC(=O)c1cn(C)nc1C(F)(F)F)C(COC(C)=O)c1ccccc1` (stereo not given) the figure was 175 °C; with `O=c1cc(CNCc2ccccc2)c2ccc(OCc3cccc(Cl)c3)cc2o1`, 133 to 135 °C. Under `CN1CCN(C2=Nc3ccccc3Cc3nccn32)CC1` stands 123 to 124 °C; under `CN(CN1C(=O)c2ccccc2C1=O)c1c(S(=O)C(F)(F)F)c(C#N)nn1-c1c(Cl)cc(C(F)(F)F)cc1Cl` (stereo not given), 163 °C; under `COC(=O)c1cccc(-c2ncc(N=CN(C)C)cn2)c1`, 146 °C. `CO[C@@H]1O[C@H](C(N)=O)[C@H]2OC(C)(C)O[C@@H]12`: the melting point was 134 to 136 °C. With `O=C(C=Cc1ccccc1)Nc1ccccc1NC(=O)C=Cc1ccccc1` the figure was 212 °C.

In turn, `CCOC(=O)C1=C(C)NC(C)=C(C(=O)OCC)C1c1ccccc1/C=C/C(=O)OC1CCCC1` registered a melting point of 182 to 184 °C.

`COc1cc(Nc2c(C#N)cnc3cc4cc(OCCN5CCOCC5)c(OC)cc4cc23)c(Cl)cc1F` registered a melting point of 206 to 222 °C. Molecule `O=C1NC(=O)c2c1c(-c1ccccc1Cl)cc1c2ccn1CCN1CCCC1` gave a melting point of 208 to 209 °C. With `COc1cc2c(cc1-c1ccccc1)c1cc(-c3ccccc3)c(OC)cc1n2CCC(C)CCCC(C)C` (stereo not given) the figure was 119 °C; with `CN(C)CCC1CCCCN1C(=O)N1c2ccccc2C(=O)Nc2cccnc21` (stereo not given), 188 to 190 °C. With `COc1cc(Nc2c(C#N)cnc3cc(/C=C/C(=O)N4CCN(C)CC4)sc23)c(Cl)cc1Cl` the figure was 218 to 220 °C.

The molecule `CCOc1cc2cc(CO)c(CO)c(-c3ccnc(Br)c3)c2cc1OC` displayed a melting point of 156 to 157 °C.

As to `COc1ccc(C=CC(=O)NNC(=O)C=Cc2ccccc2)cc1`, the melting point came to 263 °C. Take `COc1ccc(/C=C2/c3cc(OC)c(OC)cc3CCN2C(=O)c2cc(OC)c(OC)c(OC)c2)cc1OC`: the melting point lay in the range of 195 to 200 °C. For the molecule `CC(C)N1CCC(COc2ncc(C(=O)c3ccc(Cl)cc3)n2C)CC1`, the melting point was 126 to 127 °C.

As for `Cc1ccc(C=CCC(C(=O)C=Cc2ccc(Cl)cc2)c2ccccc2)cc1` (stereo not given), the melting point was 114 to 118 °C.

As to `CC(C)C(NC(=O)c1ccc(C(=O)NC(CCC(=O)O)C(=O)O)cc1)C(=O)N1CCCC1C(=O)NC(C(=O)C(F)(F)F)C(C)C` (mixture of isomers), the melting point lay in the range of 74 to 76 °C. With `O=C(O)c1n[nH]c2ncccc12`, the melting point was in the range of 175 to 176 °C. Under `CC1(C)C(=O)Nc2cc(C(=O)Nc3cccc(N)c3)ccc21` stands 244 to 245 °C; under `O=C1CCc2c1sc1c2CCCC1`, 43 to 44 °C.

`COc1cc(C(O)C#N)ccc1O` (stereo not given): the melting point lay within 80 to 81 °C. With `O=c1nc(NCc2ccccc2F)c(F)cn1-c1ccsc1` the figure was 75 to 78 °C; with `N#Cc1cnn2c1N(C(=O)CN1CCN(CC#CCN3CCCC3=O)CC1)CC=C2c1cccc(C(F)(F)F)c1`, 124 to 126 °C. `O=C(Oc1ccc(Oc2ccccc2)cc1)c1ccc(C(=O)Oc2ccc(Oc3ccccc3)cc2)cc1` gave a melting point of 193 to 194 °C. With `Cc1cc(C#Cc2cn(-c3ncccn3)c(C)n2)ccn1` the figure was 164 to 165 °C. Take `CN(C(=O)NN1CC=CCC1)c1ccccc1`: the melting point is 99 to 99.5 °C. With `COc1ccccc1SC(c1ccccc1)c1c(O)cc(-c2ccccc2)oc1=O` (stereo not given) the figure was 165 to 170 °C; with `CCCNC(=N)Nc1nc2ccc(OC(F)(F)F)cc2s1`, 110 to 111 °C; with `COc1c(NC(=O)Nc2ccc(Oc3ccoc(=O)c3)c3ccccc23)cc(C(C)(C)C)cc1NS(C)(=O)=O`, 185 to 187 °C. Consider `Cc1ccc(C=CC(=O)C(CCC(=O)O)(Cc2ccccc2Cl)c2ccccc2)cc1` (stereo not given), for which the melting point was 120 to 147 °C. Consider `COc1ccc(C(NCC(=O)Nc2c(C(C)C)cccc2C(C)C)c2ccc(OC)cc2)cc1`, for which the melting point lay within 84 to 85 °C. Under `CCN(C(=O)c1c(Cl)cccc1[Si](C)(C)C)C(OC)C(C)(C)C` (stereo not given) stands 82 to 83 °C; under `Cn1c(=O)n(CCCC(NS(=O)(=O)c2ccc(-c3ccc(Cl)cc3)cc2)C(=O)O)c(=O)c2ccccc21` (stereo not given), 188 to 191 °C.

With `COc1ccc(N2CCc3c2c2cccc(OC)c2[nH]c3=O)c(C)c1`, the melting point fell in the range of 188 to 191 °C. Consider `CC(C)=NN=c1scc(C)n1C`, for which the melting point lay within 139 to 140 °C. In turn, `CCCC[C@H](NS(=O)(=O)c1ccc(Br)cc1)C(=S)Nc1ccc(CC(=O)O)cc1` came in with a melting point of 194 to 195 °C. With `NC(c1ccccc1)C12CC(CN1)C2` (stereo not given) the figure was 46.5 to 47 °C; with `N#Cc1ccsc1C1=CC(=O)Nc2cc(-c3ccc(F)cc3)ccc2N1`, 239 to 240 °C; with `NC(=O)CCCC(=O)NCCS`, 127 °C.

`CC(C)(C)c1cc(=O)n(-c2c(Cl)cc(C(F)(F)F)cc2Cl)[nH]1`: the melting point amounted to 175 °C. In turn, `COc1cc(Cl)c2c(=O)c(-c3ccccc3C)coc2c1` returned a melting point of 159 to 160 °C.

`COc1ccc(C(=O)c2ccnn2Cc2ccccc2)c(Cl)c1Cl` returned a melting point of 102 to 105 °C.

For `COC(=O)c1ccc(OCC(=O)NN=C2C(=O)Nc3ccc(I)cc32)cc1`, the melting point was 288 °C. As to `CCCCCC(=O)Nc1ccc2ccn(Cc3ccc(C#N)cc3OC)c2c1`, the melting point lay in the range of 136 to 138 °C. Under `CC(=O)OC(C)c1ccc(CCOc2ccc(CC3SC(=O)NC3=O)cc2)nc1` (stereo not given) stands 143 to 144 °C; under `CSc1nn(-c2c(Cl)cc(C(F)(F)F)cc2Cl)c(C)c1C(=O)c1cccc(C)c1`, 103 to 104 °C; under `NS(=O)(=O)c1cccc2c1SCC=C2`, 214 to 216 °C.

Molecule `ON=Cc1c(-c2ccccc2Cl)ccc2c1OCO2` showed a melting point of 182 to 183 °C. With `CC1(C)CCC(C)(C)c2cc(C#Cc3ccc(S(C)(=O)=O)cc3)ccc21` the figure was 153 to 155 °C; with `CCOCc1nc2c(N)nc3cc(-c4cccc(CO)c4)cnc3c2n1CC(C)(C)NS(C)(=O)=O`, 173 to 174 °C; with `CCCOc1ccccc1-c1nc2nc(NCC(C)O)ncc2c(=O)[nH]1` (stereo not given), 212 to 214 °C. Consider `CCCNC(=O)N1CCC(O)(Cc2c3c(nn2CC)c(N)nc2ccccc23)CC1`, for which the melting point was in the range of 208 to 210 °C. With `O=C(CCO)N[C@H]1CC[C@H](CCN2CCN(c3nccc4c3CCO4)CC2)CC1`, the melting point is 173 °C. In turn, `COc1ccc(-c2cc(C(=O)NCc3ccccn3)c(=O)n(CC3CCCC3)n2)cc1` displayed a melting point of 127 to 128 °C.

`Cc1c(OCc2ccc(F)cc2F)cc(C)n(C2CCCCC2)c1=O` registered a melting point of 118 to 120 °C. Under `Cc1ccccc1-c1cnc2c(C(F)(F)F)cccc2c1-c1cccc(NC(=O)Nc2ccccc2Cl)c1` stands 224 to 226 °C; under `COc1ccccc1-c1cccc(C(c2ccccc2)c2ccccc2)c1O`, 131 °C; under `O=C(C=Cc1ccc(C(=O)O)cn1)NCCCCN1CCN(C(c2ccccc2)c2ccccc2)CC1`, 214 to 216 °C.

`CC(C)(C)OC(=O)N[C@@H]1C(=O)N(O)C1(C)C`: the melting point is 148 to 149 °C. With `O=C(O)C(O)c1cccc(OCc2ccccc2Cl)c1OCc1ccncc1` (stereo not given) the figure was 181 to 183 °C; with `CCC(C)NC(=O)c1ncc(C)cc1C(=O)OC` (stereo not given), 58 to 60 °C; with `Cn1ncnc1COc1nn2c(-c3ccc(F)cc3F)nncc2c1C(C)(C)C`, 118 °C. Take `CC(C)C(=O)NCCOc1ccc(N)cc1`: the melting point lay in the range of 99 to 100 °C. With `O=C(O)c1cnn2c(C(F)F)cc(-c3ccc(OC(F)(F)F)cc3)nc12` the figure was 231 °C; with `CC(C)(OCc1cc(-c2ccc(Cl)cc2)no1)C(=O)O`, 130 to 134 °C. For the molecule `COC(=O)C[C@H](O)C[C@H](O)CCc1c(-c2ccc(F)cc2)c(-c2ccccc2)c(C(=O)Nc2cccc(S(N)(=O)=O)c2)n1C(C)C`, the melting point lay within 80 to 81 °C. `C=CCNc1c([N+](=O)[O-])cc(C(=O)OC)c(Nc2ccc(I)cc2F)c1F` gave a melting point of 153 to 154 °C.

As for `O=C(O)c1sc(C(c2ccc(Cl)cc2)c2c(Cl)cc(-n3ncc(=O)[nH]c3=O)cc2Cl)nc1-c1ccccc1` (stereo not given), the melting point turned out to be 206 °C. `Fc1cccc(F)c1COc1cccnc1NC(=S)Nc1ccc(Cl)cc1` had a melting point of 151 to 154 °C. With `N#Cc1ccc2cc3c4c(cccc4c2c1)C(=O)OC3=O`, the melting point is > 320 °C. Take `CC(=O)N1C(C(=O)O)CSC1c1ccccc1OCCO[N+](=O)[O-]` (stereo not given): the melting point is 159 to 162 °C. Under `N#Cc1c(N2CCN(C(=O)c3cccs3)CC2)c2sccc2n(Cc2cccc(F)c2)c1=O` stands 271 °C. In the case of `Cn1cc(-c2cccc(F)c2)c(=O)c(-c2cccc(F)c2)c1`, the melting point lay in the range of 149 to 151 °C. Under `CC(C)(C)OCCCC1c2ccccc2COc2cccc(O)c21` (stereo not given) stands 113 to 115 °C; under `CSc1ccc(C(O)(c2ccc(Cl)cc2)C2CCN(CCO)C2=O)cc1` (stereo not given), 141 °C. `CN(N=Cc1ccc(C#N)cc1)C(=O)c1[nH]c2ccccc2c1-c1ccccc1` showed a melting point of 194 to 196 °C.
